Marks after values point to notes of the source that are not given here.
Experiments:
[1] = Body weight / toxicity of a single intraperitoneal injection in HCT-116 colon tumor-bearing nude mice; conditions: for Average rate of weight change of the animals / Average weight of the animals: single IP injection (QD×1), D1 and D2 400 mg/kg, D3 350 mg/kg, D4 300 mg/kg; for Average weight of the animals: Mean±SEM
[2] = test system: HCT-116 human colon cancer xenografts; assay: Tumor growth inhibition of HCT-116 human colon cancer xenografts in nude mice; format: in vivo, Balb/c nude mice; conditions: for Relative tumor proliferation rate (T/C %) / Relative tumor volume (RTV) / Tumor growth inhibition rate (TGI %) / Tumor volume of HCT-116 human colon cancer xenografts: single IP injection (QD×1), D1 and D2 400 mg/kg, D3 350 mg/kg, D4 300 mg/kg; for Tumor volume of HCT-116 human colon cancer xenografts: Mean±SEM
Experimental: 2. Preparation of the test substance was performed by dissolving the test substance using the following solvents:
3. Animal experiments were performed. […] Animals were numbered using their tail number.
4.1 Tumor cells were human HCT-116 colon cancer cells purchased from the Institute of Cell Biology, Chinese Academy of Sciences (Beijing, China). F-12 medium (containing 10% FBS) was used to culture cells in a carbon dioxide incubator at about 37° C., saturated humidity, under 5% CO2 and 95% air. Before inoculation, cells in logarithmic growth phase were collected. After digested by 0.25% trypsin, the cells were washed with PBS once. The cells were resuspended with serum-free medium and counted. Serum-free medium were used for cell resuspension, until the cell concentration was adjusted to about 3×10^7 cell/mL.
4.2 Animal inoculation and grouping were performed.
The diameters (D) of the tumor nodules were measured three times a week with a circle sizer ruler. In addition, the following formula was applied to calculate the volume of the tumor nodules (V): V=[…](D/2)^3 generally for a spherical shape. Evaluation indexes of antitumor activity were tumor growth inhibition rate TGI (%) and relative tumor proliferation rate T/C (%).
The calculation formula of TGI was: TGI (%)=(Vcontrol−VTreatment)/Vcontrol)×100%. The relative tumor volume (RTV) was calculated by: RTV=Vt/V0, where V0 is the tumor volume at the time of group administration, and Vt is the tumor volume at the time of measurement.
The mice were weighed 3 times every week.
4.5 Data and statistical analysis were provided.

[3] = D1 400 mg/kg Day 7, D2 400 mg/kg Day 9, D3 350 mg/kg Day 11, D4 300 mg/kg Day 11, single IP

## CCCCOC(=O)Nc1ccn(C2OC(COC(=O)CCCC(=O)OC[C@H]3O[C@@H](n4ccc(NC(=O)OCCCC)nc4=O)C(F)(F)[C@@H]3OC(=O)OCCCC)C(OC(=O)OCCCC)C2(F)F)c(=O)n1 (stereo in doubt) [Compound D1, 1,5-di-[4-N-(n-butyloxycarbonyl)-3′-O-(n-butoxycarbonyl)-2′-deoxy-2′,2′-difluoro-cytidine]glutarate]
[1]; D1 400 mg/kg, single IP, Day 4
  Body weight after drug administration (in words): significantly decreased
[1]; Day 0
  Average rate of weight change of the animals: 0.00%
  Average weight of the animals: 19.98 ± 0.49 g
[1]; Day 1
  Average rate of weight change of the animals: −2.55 ± 0.77%
  Average weight of the animals: 19.48 ± 0.58 g
[1]; Day 2
  Average rate of weight change of the animals: −12.18 ± 2.63 %
  Average weight of the animals: 17.45 ± 0.81 g
[1]; Day 4
  Average rate of weight change of the animals: −18.58 ± 4.66 %
  Average weight of the animals: 16.15 ± 1.08 g
[1]; Day 7
  Average rate of weight change of the animals: −4.23 ± 3.77%
  Average weight of the animals: 19.80 ± 1.40 g
[1]; Day 9
  Average rate of weight change of the animals: 0.42 ± 1.92%
  Average weight of the animals: 20.75 ± 1.05 g
[1]; Day 11
  Average rate of weight change of the animals: 2.77 ± 4.27%
  Average weight of the animals: 21.25 ± 1.55 g
[1]; Day 14
  Average rate of weight change of the animals: 3.29 ± 3.29%
  Average weight of the animals: 21.35 ± 1.35 g
[1]; Day 16
  Average rate of weight change of the animals: 5.24 ± 2.74%
  Average weight of the animals: 21.75 ± 1.25 g
[1]; Day 18
  Average rate of weight change of the animals: 12.70 ± 4.20 %
  Average weight of the animals: 23.30 ± 1.60 g
[1]; Day 21
  Average rate of weight change of the animals: 7.90 ± 2.90 %
  Average weight of the animals: 22.30 ± 1.30 g
[1]; Day 23
  Average rate of weight change of the animals: 9.32 ± 3.82 %
  Average weight of the animals: 22.60 ± 1.50 g
[1]; Day 25
  Average rate of weight change of the animals: 12.20 ± 4.70%
  Average weight of the animals: 23.20 ± 1.70 g
[1]; Day 28
  Average rate of weight change of the animals: 15.14 ± 3.64%
  Average weight of the animals: 23.80 ± 1.50 g
[1]; Day 30
  Average rate of weight change of the animals: 14.22 ± 2.22%
  Average weight of the animals: 23.60 ± 1.20 g
[2]; [3]
  Relative tumor proliferation rate, minimum: 28.36%
  Tumor inhibition rate, maximum: 91.49%
[2]; Day 0
  Relative tumor proliferation rate (T/C %): 0.00%
  Relative tumor volume (RTV): 1.00
  Tumor growth inhibition rate (TGI %): 0.00%
  Tumor volume of HCT-116 human colon cancer xenografts: 39.36 ± 6.16** mm^3
[2]; Day 1
  Relative tumor proliferation rate (T/C %): 80.13%
  Relative tumor volume (RTV): 1.35 ± 0.24
  Tumor growth inhibition rate (TGI %): 67.76%
  Tumor volume of HCT-116 human colon cancer xenografts: 58.20 ± 17.45** mm^3
[2]; Day 2
  Relative tumor proliferation rate (T/C %): 65.15%
  Relative tumor volume (RTV): 1.35 ± 0.24
  Tumor growth inhibition rate (TGI %): 73.77%
  Tumor volume of HCT-116 human colon cancer xenografts: 58.20 ± 17.45** mm^3
[2]; Day 4
  Relative tumor proliferation rate (T/C %): 32.20%
  Relative tumor volume (RTV): 0.89 ± 0.12
  Tumor growth inhibition rate (TGI %): 87.46%
  Tumor volume of HCT-116 human colon cancer xenografts: 37.24 ± 9.27** mm^3
[2]; Day 7
  Relative tumor proliferation rate (T/C %): 28.36%
  Relative tumor volume (RTV): 1.16 ± 0.79
  Tumor growth inhibition rate (TGI %): 91.49%
  Tumor volume of HCT-116 human colon cancer xenografts: 36.82 ± 28.63** mm^3
[2]; Day 9
  Relative tumor proliferation rate (T/C %): 28.77%
  Relative tumor volume (RTV): 1.61 ± 0.98
  Tumor growth inhibition rate (TGI %): 91.42%
  Tumor volume of HCT-116 human colon cancer xenografts: 50.63 ± 36.49** mm^3
[2]; Day 11
  Relative tumor proliferation rate (T/C %): 34.47%
  Relative tumor volume (RTV): 3.18 ± 2.18
  Tumor growth inhibition rate (TGI %): 89.65%
  Tumor volume of HCT-116 human colon cancer xenografts: 101.02 ± 78.57** mm^3
[2]; Day 14
  Relative tumor proliferation rate (T/C %): 64.15%
  Relative tumor volume (RTV): 8.88 ± 6.75
  Tumor growth inhibition rate (TGI %): 80.16%
  Tumor volume of HCT-116 human colon cancer xenografts: 285.66 ± 237.94* mm^3
[2]; Day 16
  Relative tumor proliferation rate (T/C %): 89.47%
  Relative tumor volume (RTV): 15.44 ± 11.56
  Tumor growth inhibition rate (TGI %): 72.62%
  Tumor volume of HCT-116 human colon cancer xenografts: 495.95 ± 408.8** mm^3
[2]; Day 18
  Relative tumor proliferation rate (T/C %): 106.69%
  Relative tumor volume (RTV): 20.37 ± 13.96
  Tumor growth inhibition rate (TGI %): 67.62%
  Tumor volume of HCT-116 human colon cancer xenografts: 647.07 ± 503.28** mm^3
[2]; Day 21
  Relative tumor proliferation rate (T/C %): 138.14%
  Relative tumor volume (RTV): 32.34 ± 20.40
  Tumor growth inhibition rate (TGI %): 58.38%
  Tumor volume of HCT-116 human colon cancer xenografts: 1017.61 ± 749.53 mm^3
[2]; Day 23
  Relative tumor proliferation rate (T/C %): 163.55%
  Relative tumor volume (RTV): 32.34 ± 20.40
  Tumor growth inhibition rate (TGI %): 56.91%
  Tumor volume of HCT-116 human colon cancer xenografts: 1017.61 ± 749.53 mm^3
[2]; Day 25
  Relative tumor proliferation rate (T/C %): 155.09%
  Relative tumor volume (RTV): 33.53 ± 19.21
  Tumor growth inhibition rate (TGI %): 59.56%
  Tumor volume of HCT-116 human colon cancer xenografts: 1044.35 ± 722.80 mm^3
[2]; Day 28
  Relative tumor proliferation rate (T/C %): 198.76%
  Relative tumor volume (RTV): 42 ± 22
  Tumor growth inhibition rate (TGI %): 51.78%
  Tumor volume of HCT-116 human colon cancer xenografts: 1296.79 ± 847.87 mm^3
[2]; Day 30
  Relative tumor proliferation rate (T/C %): 209.10%
  Relative tumor volume (RTV): 51.88 ± 24.88
  Tumor growth inhibition rate (TGI %): 43.36%
  Tumor volume of HCT-116 human colon cancer xenografts: 1589.29 ± 983.15 mm^3

Reference: US10351586B2, “Cytidine derivative dimers and applications thereof” (CHANGZHOU FANGYUAN PHARMACEUTICAL CO., LTD, priority 2014, dated 2019)
